Assay results as given in ChEMBL document CHEMBL1201862, “PubChem BioAssay data set” (2004).
Active and inactive are the calls of the source.

What was measured:
[1] = tested on: Streptococcus sp. 'group A'; assay: growth inhibition of control SK(-) GAS strain, dose response, counter-screen for streptokinase expression inhibitor project, luminescence, kanamycin, BacTiterGlo, confirmation (AID 1900); format: functional, organism-based
[2] = molecular target: T1, Streptokinase A (Streptococcus pyogenes serotype M1, UniProt P10520); assay: S. pyogenes streptokinase expression inhibitors, potency, dose response, plasminogen activation absorbance, OD405 (AID 1914); format: functional, Streptococcus pyogenes M1 GAS;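 also: secreted streptokinase activity via plasminogen activation per viability signal from cell pellet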
T1 sequence (P10520 whole entry): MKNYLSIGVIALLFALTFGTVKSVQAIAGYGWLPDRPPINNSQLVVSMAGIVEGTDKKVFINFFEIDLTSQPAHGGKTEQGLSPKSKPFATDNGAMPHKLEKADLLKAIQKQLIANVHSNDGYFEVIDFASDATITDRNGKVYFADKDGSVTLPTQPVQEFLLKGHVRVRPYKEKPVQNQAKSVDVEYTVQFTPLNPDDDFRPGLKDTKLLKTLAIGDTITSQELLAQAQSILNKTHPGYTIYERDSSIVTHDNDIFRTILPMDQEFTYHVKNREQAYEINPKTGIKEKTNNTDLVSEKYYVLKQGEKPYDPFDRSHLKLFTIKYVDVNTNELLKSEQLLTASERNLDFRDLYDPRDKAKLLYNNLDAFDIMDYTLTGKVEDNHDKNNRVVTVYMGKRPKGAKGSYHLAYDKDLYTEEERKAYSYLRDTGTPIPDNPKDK

[3] = inhibitors of intracellular T. cruzi replication, confirmation, NIH3T3 host cells, beta-gal luminescence (AID 2044); format: functional, cell-based;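 also: intracellular parasites grown in NIH/3T3 mouse fibroblasts as host cells; luminescent beta-galactosidase reporter signal from transgenic T. cruzi replicating inside host cells; inhibitors lower the luminescence signal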
[4] = growth suppression of PTEN-null colon cells, dose response, cell-based, HCT116 PTEN knockout (AID 1047); format: functional;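 also: HCT116 colon tumor cells with PTEN knocked out; cells exposed to compound for 60 hours before readout; potency for loss of cell viability measured by luminescence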
[5] = cytotoxicity toward NIH3T3 fibroblasts, dose response, counter-screen, cell-based, ATP luminescence, mouse fibroblasts (AID 2010); format: functional;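 also: cells exposed to compound for about 90 hours before reading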
[6] = growth suppression of beta-catenin-knockout colon cells, dose response, cell-based, HCT116, human colon tumor (AID 1045); format: functional;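 also: HCT116 colon tumor cells with beta catenin knocked out; cells exposed to compound for 60 hours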
[7] = tested on: Streptococcus; assay: Group A Streptococcus viability loss, dose response, counter-screen for streptokinase expression inhibitor project, luminescence, BacTiterGlo (AID 1915); format: functional, organism-based;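 also: potency for reduction of bacterial viability or growth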
[8] = Luminescence Cell-Based Dose Retest to Confirm Inhibitors of Cancer Stem Cells. [Related pubchem assays (depositor defined):AID2717, AID2721]; format: functional; conditions: Homo sapiens
[9] = Vero cell cytotoxicity, dose response, cytotoxicity control for Vif-APOBEC3G degradation inhibitor project, Vero cells (AID 1117358); format: functional; conditions: Human immunodeficiency virus 1, Vero
[10] = molecular target: T2, Mannose-6-phosphate isomerase (Homo sapiens, UniProt P34949); assay: human PMI inhibitors, high substrate, primary screen, biochemical, fluorescence intensity, high mannose 6-phosphate (AID 1220)
T2 sequence (P34949 whole entry): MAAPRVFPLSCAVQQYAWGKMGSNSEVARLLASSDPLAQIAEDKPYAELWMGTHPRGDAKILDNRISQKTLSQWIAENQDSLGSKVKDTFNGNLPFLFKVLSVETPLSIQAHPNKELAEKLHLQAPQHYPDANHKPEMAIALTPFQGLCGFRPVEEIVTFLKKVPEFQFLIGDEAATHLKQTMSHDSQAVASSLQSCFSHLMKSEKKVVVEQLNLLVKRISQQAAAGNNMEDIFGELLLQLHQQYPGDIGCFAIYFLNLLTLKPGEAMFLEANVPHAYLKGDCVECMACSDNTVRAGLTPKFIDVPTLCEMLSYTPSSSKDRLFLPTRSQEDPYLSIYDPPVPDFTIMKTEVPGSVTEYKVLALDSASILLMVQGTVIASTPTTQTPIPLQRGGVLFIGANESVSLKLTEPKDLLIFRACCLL

[11] = THP-1 cell cytotoxicity, dose response, cytotoxicity control for Vif-APOBEC3G degradation inhibitor project, THP-1 cells (AID 1117359); format: functional; conditions: Human immunodeficiency virus 1, THP-1
[12] = M. tuberculosis H37Rv growth inhibitors, H37Rv strain (AID 1626); format: functional
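For AC50 in this document: cells exposed to compound for roughly 70 hours or longer before luminescence read.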

With `O=C(/C=C/c1ccccc1)NC(NC(=S)Nc1cc(Cl)ccc1Cl)C(Cl)(Cl)Cl` (configuration not stated) the EC50 [1] was 2.43 µM (active), the EC50 [2] was 4.43 µM (active) and the EC50 [3] was 1.73 µM (active). The EC50 [4] was 17.3 µM (active), the EC50 [5] was > 60 µM (not active) and the EC50 [6] was 16.1 µM (active). The EC50 [7] was 64.2 µM (active), the AC50 [8] was 0.993 µM (active) and the CC50 [9] was > 40 µM (active).
For `COc1ccccc1-n1c(SCC(=O)NCc2ccc3c(c2)OCO3)nc2cc([N+](=O)[O-])ccc21`, the IC50 [10] was > 50 µM (not active) and the CC50 [11] was > 40 µM (active).
In the case of `COc1ccc(NC2(C#N)CCCCC2)cc1`, the IC50 [12] is reported as > 100 µM (active).
